Patent US7217726B2, “Antibacterial agents” (Orchid Chemicals & Pharmaceuticals Limited, priority 2002, dated 2007)
≈ marks a conversion by molar mass, not a printed value. Each block holds one compound with its values, some of them ahead of it.

Legend:
[1] = system: S. epidermidis MRO 02046; assay: Agar Dilution Method MIC, S. epidermidis MRO 02046; format: cell-based; settings: Staphylococcus epidermidis, MRO02046, Mueller Hinton Agar, 35° Celsius, 20 hours, read-out: Minimum Inhibitory Concentration (MIC in μg/ml)
Protocol: (§1) Briefly, the compounds of invention were weighed, dissolved in Dimethyl Sulfoxide, serially diluted in the same solvent and then incorporated into molten Mueller Hinton Agar in a petridish before solidification, with each petridish containing a different concentration of a compound.
(§2) The Bacterial Inoculum was prepared by touching the tops of 3 to 5 well isolated bacterial colonies with the same morphological appearance from an 18 hour old culture with an inoculating loop, transfering the growth to a tube containing 5 ml of normal saline and adjusting the turbidity of the saline suspension to 0.5 Macfarland Turbidity Standard equivalent to a bacterial population of 1.5×10^8 colony forming units (CFU) per millilitre of suspension.
(§3) The bacterial inoculum prepared in the above manner was inoculated onto petri dishes containing Mueller Hinton Agar which had earlier been incorporated with different dilutions of the compounds of invention by a Multipoint Inoculator with each inoculum spot containing approximately 1×10^4 colony forming units (CFU) of bacteria.
(§4) The inoculated petridishes were incubated at 35° Celsius in an ambient atmosphere for 20 hours. Petridishes containing different concentrations of Vancomycin and Oxacillin and inoculated with Staphylococcus aureus, Coagulase Negative Staphylococci and Enterococci were incubated for 24 hours.

[2] = system: S. aureus ATCC 29213; assay: Agar Dilution Method MIC, S. aureus ATCC 29213; format: cell-based; settings: Staphylococcus aureus, ATCC29213, Mueller Hinton Agar, 35° Celsius, 20 hours, read-out: Minimum Inhibitory Concentration (MIC in μg/ml)
Protocol: as §1, §2, §3, §4

[3] = system: S. aureus ATCC 43300; assay: Agar Dilution Method MIC, S. aureus ATCC 43300; format: cell-based; settings: Staphylococcus aureus, ATCC43300, Mueller Hinton Agar, 35° Celsius, 20 hours, read-out: Minimum Inhibitory Concentration (MIC in μg/ml)
Protocol: as §1, §2, §3, §4

[4] = system: M. catarrhalis ATCC 43628; assay: Agar Dilution Method MIC, M. catarrhalis ATCC 43628; format: cell-based, Morexella catarrhalis; settings: Moraxella catarrhalis, ATCC43628, Mueller Hinton Agar, 35° Celsius, 20 hours, read-out: Minimum Inhibitory Concentration (MIC in μg/ml)
Protocol: as §1, §2, §3, §4

[5] = system: E. faecalis ATCC 29212; assay: Agar Dilution Method MIC, E. faecalis ATCC 29212; format: cell-based; settings: Enterococcus faecalis, ATCC29212, Mueller Hinton Agar, 35° Celsius, 20 hours, read-out: Minimum Inhibitory Concentration (MIC in μg/ml)
Protocol: as §1, §2, §3, §4

[6] = system: S. aureus MRO 00048; assay: Agar Dilution Method MIC, S. aureus MRO 00048; format: cell-based; settings: Staphylococcus aureus, MRO00048, Mueller Hinton Agar, 35° Celsius, 20 hours, read-out: Minimum Inhibitory Concentration (MIC in μg/ml)
Protocol: as §1, §2, §3, §4

[7] = system: S. aureus MRO 00001; assay: Agar Dilution Method MIC, S. aureus MRO 00001; format: cell-based; settings: Staphylococcus aureus, MRO00001, Mueller Hinton Agar, 35° Celsius, 20 hours, read-out: Minimum Inhibitory Concentration (MIC in μg/ml)
Protocol: as §1, §2, §3, §4

[8] = system: E. faecalis ATCC 51299; assay: Agar Dilution Method MIC, E. faecalis ATCC 51299; format: cell-based; settings: Enterococcus faecalis, ATCC51299, Mueller Hinton Agar, 35° Celsius, 20 hours, read-out: Minimum Inhibitory Concentration (MIC in μg/ml)
Protocol: as §1, §2, §3, §4

[9] = system: E. fecalis MRO 04045; assay: Agar Dilution Method MIC, E. fecalis MRO 04045; format: cell-based; settings: Enterococcus faecalis, MRO04045, Mueller Hinton Agar, 35° Celsius, 20 hours, read-out: Minimum Inhibitory Concentration (MIC in μg/ml)
Protocol: as §1, §2, §3, §4

[10] = system: M. catarrhalis ATCC 43627; assay: Agar Dilution Method MIC, M. catarrhalis ATCC 43627; format: cell-based, Morexella catarrhalis; settings: Moraxella catarrhalis, ATCC43627, Mueller Hinton Agar, 35° Celsius, 20 hours, read-out: Minimum Inhibitory Concentration (MIC in μg/ml)
Protocol: as §1, §2, §3, §4

[11] = system: S. aureus MRO 00003; assay: Agar Dilution Method MIC, S. aureus MRO 00003; format: cell-based; settings: Staphylococcus aureus, MRO00003, Mueller Hinton Agar, 35° Celsius, 20 hours, read-out: Minimum Inhibitory Concentration (MIC in μg/ml)
Protocol: as §1, §2, §3, §4

[12] = system: S. aureus MRO 00059; assay: Agar Dilution Method MIC, S. aureus MRO 00059; format: cell-based; settings: Staphylococcus aureus, MRO00059, Mueller Hinton Agar, 35° Celsius, 20 hours, read-out: Minimum Inhibitory Concentration (MIC in μg/ml)
Protocol: as §1, §2, §3, §4

[13] = system: S. aureus MRO 00055; assay: Agar Dilution Method MIC, S. aureus MRO 00055; format: cell-based; settings: Staphylococcus aureus, MRO00055, Mueller Hinton Agar, 35° Celsius, 20 hours, read-out: Minimum Inhibitory Concentration (MIC in μg/ml)
Protocol: as §1, §2, §3, §4

[14] = system: M. catarrhalis ATCC 43617; assay: Agar Dilution Method MIC, M. catarrhalis ATCC 43617; format: cell-based, Morexella catarrhalis; settings: Moraxella catarrhalis, ATCC43617, Mueller Hinton Agar, 35° Celsius, 20 hours, read-out: Minimum Inhibitory Concentration (MIC in μg/ml)
Protocol: as §1, §2, §3, §4

[15] = system: S. aureus MRO 00013; assay: Agar Dilution Method MIC, S. aureus MRO 00013; format: cell-based; settings: Staphylococcus aureus, MRO00013, Mueller Hinton Agar, 35° Celsius, 20 hours, read-out: Minimum Inhibitory Concentration (MIC in μg/ml)
Protocol: as §1, §2, §3, §4

[16] = system: S. aureus MRO 00030; assay: Agar Dilution Method MIC, S. aureus MRO 00030; format: cell-based; settings: Staphylococcus aureus, MRO00030, Mueller Hinton Agar, 35° Celsius, 20 hours, read-out: Minimum Inhibitory Concentration (MIC in μg/ml)
Protocol: as §1, §2, §3, §4

SMILES: CC(=S)NC[C@H]1CN(c2ccc(N3CCN(C(=S)c4ncc[nH]4)CC3)c(F)c2)C(=O)O1 [Example 22, (S)-N-[3-[3-Fluoro-4-[4-(imidazol-2-ylthiocarbonyl)piperazin-1-yl]phenyl]-2-oxooxazolidin-5-ylmethyl]thioacetamide]
MIC [1]: < 0.25 µg/mL | MIC [2]: 0.5 µg/mL (≈ 1.08 µM) | MIC [3]: 0.5 µg/mL (≈ 1.08 µM) | MIC [4]: 1 µg/mL (≈ 2.16 µM) | MIC [5]: 0.5 µg/mL (≈ 1.08 µM) | MIC [6]: < 0.25 µg/mL | MIC [7]: 0.5 µg/mL (≈ 1.08 µM) | MIC [8]: < 0.25 µg/mL | MIC [9]: 1 µg/mL (≈ 2.16 µM) | MIC [10]: 1 µg/mL (≈ 2.16 µM) | MIC [11]: 0.5 µg/mL (≈ 1.08 µM) | MIC [12]: 0.5 µg/mL (≈ 1.08 µM) | MIC [13]: 1 µg/mL (≈ 2.16 µM) | MIC [14]: 1 µg/mL (≈ 2.16 µM) | MIC [15]: 1 µg/mL (≈ 2.16 µM) | MIC [16]: 0.5 µg/mL (≈ 1.08 µM)

SMILES: CC(=S)NC[C@H]1CN(c2ccc(N3CCN(C(=S)c4cccs4)CC3)c(F)c2)C(=O)O1 [Example 3, (S)-N-[3-[3-Fluoro-4-[4-(thiophen-2-ylthiocarbonyl)piperazin-1-yl]phenyl]-2-oxooxazolidin-5-ylmethyl]thioacetamide]
MIC [1]: 0.5 µg/mL (≈ 1.04 µM) | MIC [2]: 0.5 µg/mL (≈ 1.04 µM) | MIC [3]: 0.25 µg/mL (≈ 0.522 µM) | MIC [4]: 1 µg/mL (≈ 2.09 µM) | MIC [5]: 0.5 µg/mL (≈ 1.04 µM) | MIC [6]: 0.25 µg/mL (≈ 0.522 µM) | MIC [7]: 0.5 µg/mL (≈ 1.04 µM) | MIC [8]: 0.25 µg/mL (≈ 0.522 µM) | MIC [9]: 1 µg/mL (≈ 2.09 µM) | MIC [10]: 1 µg/mL (≈ 2.09 µM) | MIC [11]: 1 µg/mL (≈ 2.09 µM) | MIC [12]: 0.25 µg/mL (≈ 0.522 µM) | MIC [13]: 1 µg/mL (≈ 2.09 µM) | MIC [14]: 1 µg/mL (≈ 2.09 µM) | MIC [15]: 1 µg/mL (≈ 2.09 µM) | MIC [16]: 0.5 µg/mL (≈ 1.04 µM)

SMILES: CC(=S)NC[C@H]1CN(c2ccc(N3CCN(C(=S)c4ccc(Cl)s4)CC3)c(F)c2)C(=O)O1 [Example 8, (S)-N-[3-[3-Fluoro-4-[4-(5-chlorothiophen-2-ylthiocarbonyl)piperazin-1-yl]phenyl]-2-oxooxazolidin-5-ylmethyl]thioacetamide]
MIC [1]: 0.25 µg/mL (≈ 0.487 µM) | MIC [2]: 0.5 µg/mL (≈ 0.974 µM) | MIC [3]: 0.25 µg/mL (≈ 0.487 µM) | MIC [4]: 2 µg/mL (≈ 3.9 µM) | MIC [5]: 0.25 µg/mL (≈ 0.487 µM) | MIC [6]: 0.25 µg/mL (≈ 0.487 µM) | MIC [7]: 0.25 µg/mL (≈ 0.487 µM) | MIC [8]: 0.25 µg/mL (≈ 0.487 µM) | MIC [9]: 0.25 µg/mL (≈ 0.487 µM) | MIC [10]: 2 µg/mL (≈ 3.9 µM) | MIC [11]: 0.5 µg/mL (≈ 0.974 µM) | MIC [12]: 0.25 µg/mL (≈ 0.487 µM) | MIC [13]: 0.5 µg/mL (≈ 0.974 µM) | MIC [14]: 2 µg/mL (≈ 3.9 µM) | MIC [15]: 0.5 µg/mL (≈ 0.974 µM) | MIC [16]: 0.5 µg/mL (≈ 0.974 µM)

Further compounds by falling MIC [1], results first:

MIC [1]: 0.25 µg/mL (≈ 0.573 µM) | MIC [2]: 0.5 µg/mL (≈ 1.15 µM) | MIC [3]: 0.25 µg/mL (≈ 0.573 µM) | MIC [4]: 1 µg/mL (≈ 2.29 µM) | MIC [5]: 0.5 µg/mL (≈ 1.15 µM) | MIC [6]: 0.25 µg/mL (≈ 0.573 µM) | MIC [7]: 0.25 µg/mL (≈ 0.573 µM) | MIC [8]: 0.25 µg/mL (≈ 0.573 µM) | MIC [9]: 1 µg/mL (≈ 2.29 µM) | MIC [10]: 1 µg/mL (≈ 2.29 µM) | MIC [11]: 1 µg/mL (≈ 2.29 µM) | MIC [12]: 0.25 µg/mL (≈ 0.573 µM) | MIC [13]: 1 µg/mL (≈ 2.29 µM) | MIC [14]: 1 µg/mL (≈ 2.29 µM) | MIC [15]: 1 µg/mL (≈ 2.29 µM) | MIC [16]: 0.5 µg/mL (≈ 1.15 µM)
SMILES: CC(=S)NC[C@H]1CN(c2ccc(N3CCN(C(=S)C4CC4)CC3)c(F)c2)C(=O)O1 [Example 6, (S)-N-[3-[3-Fluoro-4-[4-(cyclopropylthiocarbonyl)piperazin-1-yl]phenyl]-2-oxooxazolidin-5-ylmethyl]thioacetamide]

MIC [1]: 0.25 µg/mL (≈ 0.527 µM) | MIC [2]: 0.5 µg/mL (≈ 1.05 µM) | MIC [3]: 0.25 µg/mL (≈ 0.527 µM) | MIC [4]: 2 µg/mL (≈ 4.21 µM) | MIC [5]: 0.25 µg/mL (≈ 0.527 µM) | MIC [6]: 0.25 µg/mL (≈ 0.527 µM) | MIC [7]: 0.25 µg/mL (≈ 0.527 µM) | MIC [8]: 0.25 µg/mL (≈ 0.527 µM) | MIC [9]: 0.25 µg/mL (≈ 0.527 µM) | MIC [10]: 2 µg/mL (≈ 4.21 µM) | MIC [11]: 0.5 µg/mL (≈ 1.05 µM) | MIC [12]: 0.25 µg/mL (≈ 0.527 µM) | MIC [13]: 0.5 µg/mL (≈ 1.05 µM) | MIC [14]: 2 µg/mL (≈ 4.21 µM) | MIC [15]: 0.5 µg/mL (≈ 1.05 µM) | MIC [16]: 0.5 µg/mL (≈ 1.05 µM)
SMILES: CC(=S)NC[C@H]1CN(c2ccc(N3CCN(C(=S)c4cnccn4)CC3)c(F)c2)C(=O)O1 [Example 14, (S)-N-[3-[3-Fluoro-4-[4-(pyrazin-2-ylthiocarbonyl)piperazin-1-yl]phenyl]-2-oxooxazolidin-5-ylmethyl]thioacetamide]
